The source of these data is article PMC8997437, “Apelin Resistance Contributes to Muscle Loss during Cancer Cachexia in Mice” (Cancers, 2022).

“Also recorded” adds a separate entry of the source.

The test system of assay [1] is C2C12 myotubes. Put plainly: Myotube diameter measurement (dexamethasone-induced atrophy). Type of assay: cell-based, mouse. To be noted: four day-differentiated myotubes, 24 h; for protection of myotube diameter from dexamethasone-induced atrophy: 10 μM dexamethasone plus 10 nM peptide, n = 261–297.
Description: C2C12 (ATCC, Manassas, VA, USA), a myoblast cell line from the C3H mouse strain, was grown in DMEM (Dulbecco’s Modified Eagle’s Medium, Gibco, Waltham, MA, USA) with fetal bovine serum (FBS) (Euroclone, Pero, Italy) and 2 mM L-glutamine, (BioWest, Nuaillè, France) and maintained in culture at 37 °C with 5% CO2. Myoblasts differentiate into myotubes when they reached 80% confluence and were cultured for four days in DMEM, 2 mM L-glutamine, horse serum (HS) (Euroclone), at 37 °C and 8% CO2. The differentiation medium was changed every two days.
Pictures of myotubes were acquired with an Olympus Microscope IX71 (10× magnification, 10× ocular lens, Olympus, Shinjuku, Japan) with Cell F (2.6 Build1210, Olympus) imaging software for Life Science microscopy (Olympus Soft Imaging solution GmbH, Munster, Germany). Myotube diameters were measured in blind conditions using ImageJ software (National Institutes of Health, Bethesda, MA, USA). For each photo 10–11 myotubes were measured, calculating the mean of three diameters per myotube, for a total of at least 100 cells per condition.
Four day-differentiated myotubes were exposed for 24 h to vehicle (Ctrl) or 10 μM dexamethasone (Dexa) and representative brightfield images are shown. […] We measured in blind the diameter of four day-differentiated myotubes exposed for 24 h to vehicle or 10 μM Dexamethasone (DEXA) in combination with vehicle or 10 nM apelin peptides of different lengths. […] Kruskal–Wallis test, **** p ≤ 0.0001, n = 261–297.
A further assay has as its system APJ. The following applies: cited from earlier work.
For assay [2], the system named is C2C12 myotubes. Kind of assay: Total protein content of myotubes. Type of assay: cell-based, mouse. To be noted: 10 μM dexamethasone, n = 6.
Description: Total proteins were extracted from myotubes and muscles and quantitated as in [31]. Proteins were separated by electrophoresis on 4–20% sodium dodecyl sulfate-polyacrylamide gel electrophoresis (SDS-PAGE) (Bio-Rad, Hercules, CA, USA) and transferred to a polyvinylidene difluoride membrane (GE Healthcare, Chicago, IL, USA), which was then saturated for 2 h at RT with 5% bovine serum albumin (BSA) or milk in TBS-T buffer (20 mM Tris, 150 mM NaCl and 0.1% Tween-20) (Sigma). […] Band intensities were analyzed using ImageJ software.
Assay [3] relates to MuRF1, atrogin-1 and apelin mRNA in myotubes. Kind of assay: Q-PCR of atrophy-related genes in myotubes. In kind it is cell-based, mouse. To be noted: 10 μM Dexa, 24 h, TBP housekeeping, n = 6.
Description: Total RNA was isolated from cells or muscles with QIAzol Lysis Reagent (Qiagen, Hilden, Germany) and miRNeasy Kit (Qiagen), as in [31]. RNA concentration and purity were measured in a spectrophotometer (NanoDrop 1000, ThermoFisher Scientific, Waltham, MA, USA).
mRNA/μg in muscle was analyzed using TaqMan reverse transcription reagents (Life Technologies) or SYBR Green (Qiagen). β-Glucuronidase (GUSB), or Tata binding protein (TBP), or Importin 8 (IPO8), or 18S ribosomal RNA (18S) were used as housekeeping genes (HK). To normalize for three HK, we used the ratio between the arithmetic average and the geometric average of the ng of cDNA of each gene, as described in [32].
TBP was used as housekeeping gene.
The test system of a further assay is MuRF1 promoter. Put plainly: MuRF1 promoter-Firefly luciferase reporter assay in myoblasts. Type of assay: cell-based, mouse. The following applies: 10 μM dexamethasone, 24 h, normalised to RLuc, n = 12. For orientation: In a reporter assay the amount or activity of a reporter protein is the signal.
For assay [4], the system named is cAMP-responsive elements (CRE). Put plainly: CRE-luciferase (cAMP) reporter assay in transfected myoblasts, forskolin induction. In kind it is cell-based, mouse. The following applies: 50 μM forskolin, 5 h. The source says:
To test whether D-apelin still binds APJ, ultimately lowering cAMP levels, we transfected myoblasts with a reporter plasmid with the gene for FLuc under the control of cAMP-responsive elements (CRE). […] As expected, forskolin induced the CRE-related bioluminescent signal more than 20-fold (Figure 4C).

Description for MuRF1 promoter: We used C2C12 myoblasts grown in a 24-well plate and transfected with pLKO or preproapelin-expressing plasmids with murine MuRF1 promoter-FLuc plasmid, and pRL-TK plasmid (Promega) using Lipofectamine 2000 (Life Technologies Europe BV, Carlsbad, CA, USA). The next day, they were treated with vehicle or 10 μM dexamethasone for 24 h. Luciferase activities were measured using the Dual-Luciferase Reporter Assay System (Promega) and a luminometer (Glomax 20/20 single tube luminometer, Promega).
Myoblasts were transfected with a plasmid in which Firefly luciferase (FLuc) is under the control of a MuRF1 promoter, with another for Renilla luciferase (RLuc), under the control of thymidine kinase promoter to normalize the data (ratio 50:1) and with the empty vector pLKO, as control, or a preproapelin-expressing plasmid (Apln). After 24 h, myoblasts were treated with vehicle or with 10 μM Dexa for 24 h. […] Ordinary one-way ANOVA, ** p ≤ 0.01, **** p ≤ 0.0001, n = 12.

With [Pyr1]-Apelin 13 [L-apelin 13], the “protection of myotube diameter from dexamethasone-induced atrophy” value in the assay on C2C12 myotubes [1] is “fully protects myotubes from dexamethasone-induced atrophy; also recorded: fully preserved myotube diameter”. The “affinity for APJ” value in the assay on APJ was “nanomolar affinity”.

With `C[C@@H]1C[C@H]2[C@@H]3CCC4=CC(=O)C=C[C@]4(C)[C@@]3(F)[C@@H](O)C[C@]2(C)[C@@]1(O)C(=O)CO` [dexamethasone, Dexamethasone], in the assay on C2C12 myotubes [2], the “reduction of total protein content” value is on record as “about 25%”. In assay [3], the “apelin expression (mRNA)” value was “halved”, the “increase of MuRF1 expression (mRNA)” value is reported as “about 3 fold” and the “increase of atrogin-1 expression (mRNA)” value is listed as 3 fold. Besides, in the assay on MuRF1 promoter, the “increase of FLuc expression under MuRF1 promoter” value was approximately 15 fold.

With `C=C[C@@]1(C)CC(=O)[C@]2(O)[C@@]3(C)[C@@H](O)CCC(C)(C)[C@@H]3[C@H](O)[C@H](OC(C)=O)[C@@]2(C)O1` [forskolin], in assay [4], the “induction of CRE-related bioluminescent signal” value is reported as “more than 20 fold”.

“apelin 36: apelin isoform of 36 amino acids binding APJ (Tocris) (LVQPRGSRNGPGPWQGGRRKFRRQRPRLSHKGPMPF; Apelin-36; UniProt Q9ULZ1 42-77, looked up)”: in the assay with C2C12 myotubes [1] (10 nM peptide with vehicle), the “effect of peptide alone on myotube diameter” value is on record as “reduced myotube diameters”. Further, in the assay with C2C12 myotubes [1], the “protection of myotube diameter from dexamethasone-induced atrophy” value was “Unlike apelin 36, apelin 13 fully protects”.
